Measurements: patent US10457662B2, “Substituted amides for treating and preventing cancer” (The Regents of the University of Michigan, priority 2015, dated 2019)
Read-outs that look alike come from different tables or passages of the source.

Assays:
[1] = system: Panc-1; experiment: MTT assay, Panc-1; assay type: cell-based; settings: Homo sapiens
Description: (§1) Experiments conducted during the course of developing embodiments for the present invention involved performance of a phenotypic screen of a library of 20,000 small-molecules representing five million compounds. […] Subsequently, a lead optimization campaign was performed to synthesize a series of close analogs. Initially, the 50 analogs were tested in three pancreatic cancer cell lines using MTT assay (Table 1).
(§2) For in vitro studies, compounds were dissolved in DMSO at 10 mM as stock solutions and stored at −20° C. For in vivo studies, QN523 was dissolved in a vehicle containing 5% DMSO, 35% propylene glycol and 60% saline, and administered at 100 uL through intraperitoneal injections.

[2] = system: BxPC-3; experiment: MTT assay, BxPC-3; assay type: cell-based; settings: Homo sapiens
Description: as §1, §2

[3] = system: three pancreatic cancer cell lines; experiment: MTT assay, three pancreatic cancer cell lines; assay type: cell-based; settings: read-out: Mark: IC50 lower than 1 μM in at least one cell line, Table 1
[4] = system: MiaPaCa-2; experiment: MTT assay, MiaPaCa-2; settings: Homo sapiens
Description: Cells were treated with QN523 for 1, 4, 8, 24, 48, 72 h and left in culture in fresh media. MTT assay was performed 72 h after initiation of treatment. Data points represent Mean±SD from three independent experiments.
as §1, §2

[5] = system: GRP78, CHOP, ATF3, GDF15; experiment: Western blotting of stress responsive proteins in MiaPaCa-2; assay type: cell-based
Description: FIG. 11: QN523 induces protein expression of stress markers dose-dependently.
This example describes the validation of biomarkers GDF15, ATF3, DDIT3, HSPA5, WIPI1, GABARAPL1 and MAP1LC3B in pancreatic cancer cell lines. To validate the findings from bioinformatics analysis basing on Bru-seq experiments, the proposed biomarkers were further tested in pancreatic cancer cell lines. […] However, the potency of Sulindac is much lower than that of QN523, with IC50 of 300 μM in MiaPaCa-2.
(§3) In addition, primary antibodies for LC3B, survivin, cyclin D1, Stat3 and phosphorylated Stat3 (Y705) are from Cell Signaling Technology.

[6] = system: WIPI1, GABARAPL1 and LC3B; experiment: Western blotting of autophagy related proteins in MiaPaCa-2; assay type: cell-based; settings: for activation of autophagy: at their IC50 values
Description: FIG. 12: QN523 induces protein expression of autophagy markers dose-dependently.
Significant induction of the protein was detected at concentrations as low as 0.25 μM.
as §3

[7] = PANC-1, MTT assay, Mean ± SD, three independent experiments, read-out: IC50 Values Panc-1
[8] = BXPC-3, MTT assay, Mean ± SD, three independent experiments, read-out: IC50 Values BxPC-3
[9] = MIA PaCa-2, read-out: IC50 Values MiaPaCa-2

SMILES | IC50 [1, 7] | IC50 [2, 8] | IC50 [3] | IC50 [4, 9] | further results
O=C(Nc1cccc2cccnc12)c1ncccn1 [QN567, Pyrimidine-2-carboxylic acid quinolin-8-ylamide] |  |  | < 1 µM |  | IC50 ([1]; PANC-1, read-out: IC50 Values Panc-1): > 10 µM; IC50 ([2]; BXPC-3, read-out: IC50 Values BxPC-3): > 10 µM; IC50 ([4]; MIA PaCa-2, read-out: IC50 Values MiaPaCa-2, MTT assay, Mean ± SD, three independent experiments): 0.33 ± 0.06 µM
O=C(Nc1ccc(Br)c2cccnc12)c1cnccn1 [QN618, Pyrazine-2-carboxylic acid (5-bromoquinolin-8-yl)amide] | 7.02 ± 2.92 µM | 7.51 ± 1.32 µM | < 1 µM | 0.75 ± 0.09 µM | 
O=C(Nc1cc(F)cc2cccnc12)c1cnccn1 [QN651, Pyrazine-2-carboxylic acid (6-fluoro-quinolin-8-yl)amide] | 0.67 ± 0.25 µM | > 10 µM | < 1 µM | 0.13 ± 0.06 µM | 
O=C(Nc1cc(F)cc2cccnc12)c1ncccn1 [QN658, Pyrimidine-2-carboxylic acid (6-fluoroquinolin-8-yl)amide] | 5.33 ± 1.53 µM | > 10 µM | < 1 µM | 0.3 ± 0.1 µM | 
O=C(Nc1cc(Cl)cc2cccnc12)c1ncccn1 [QN794, N-(6-Chloroquinolin-8-yl)pyrimidine-2-carboxamide] | 4.67 ± 1.53 µM | > 10 µM | < 1 µM | 0.8 ± 0.05 µM | 
CC1=C(CC(=O)O)c2cc(F)ccc2/C1=C\c1ccc([S+](C)[O-])cc1 (stereo not drawn) [Sulindac] |  |  |  |  | protein levels of stress responsive markers HSPA5, DDIT3, ATF3 and GDF15 ([5]; 72 h, western blotting): induced; autophagy-related markers WIPI1, GABARAPL1 and LC3B ([6]; 72 h treatment, western blotting): Accumulation; IC50 ([4]; MIA PaCa-2, read-out: IC50 in MiaPaCa-2): 300 µM
CN1CCN(CCCN2c3ccccc3Sc3ccc(Cl)cc32)CC1 [prochlorperazine] |  |  |  |  | induction of GRP78 and CHOP ([5]; tested at IC50 value): most robust induction of GRP78 and CHOP; activation of autophagy [6]: robust activation of autophagy
CSc1ccc2c(c1)N(CCC1CCCCN1C)c1ccccc1S2 (stereo not drawn) [thioridazine] |  |  |  |  | activation of autophagy [6]: robust activation of autophagy

More lines, main results first:

IC50 [1, 7] | IC50 [2, 8] | IC50 [3] | IC50 [4, 9] | SMILES | further results
9.5 ± 0.5 µM | 9.17 ± 0.76 µM | < 1 µM | 0.87 ± 0.15 µM | CC(C)(C)OC(=O)NCCOc1cc(NC(=O)c2cnccn2)c2ncccc2c1 [QN151, (2-{8-[(Pyrazine-2-carbonyl)amino]quinolin-6-yloxy}ethyl)carbamic acid tert-butyl ester] | 
2.17 ± 0.76 µM | 3.67 ± 0.76 µM | < 1 µM | 0.67 ± 0.12 µM | Cc1cnc(C(=O)Nc2cc(OCCNC(=O)OC(C)(C)C)cc3cccnc23)cn1 [QN152, (2-{8-[(5-Methylpyrazine-2-carbonyl)amino]quinolin-6-yloxy}ethyl)carbamic acid tert-butyl ester] | 
2.12 ± 0.94 µM | > 10 µM | < 1 µM | 0.31 ± 0.16 µM | Cc1cnc(C(=O)Nc2cc(F)cc3cccnc23)cn1 [QN652, 5-Methylpyrazine-2-carboxylic acid (6-fluoroquinolin-8-yl)amide] | 
0.83 ± 0.21 µM | 6.7 ± 0.6 µM | < 1 µM | 0.27 ± 0.15 µM | COc1cc(NC(=O)c2cnc(C)cn2)c2ncccc2c1 [QN663, 5-Methylpyrazine-2-carboxylic acid (6-methoxyquinolin-8-yl)amide] | 
